Assays:
Type in all cases: biochemical
[1] = target: T1, PI3Kalpha (Homo sapiens, UniProt P42336); test: Human PI3Kα enzyme assay (HTRF); settings: for inhibition at 1.11 µM: read-out: PI3Kalpha % inh; for PI3Kalpha % inh: at 1.11 μM
T1 construct: His (N); host or cells: SF9 insect cells (baculovirus)
How it was run: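 His-tagged p110α co-expressed with p85 in Sf9 cells was reacted for 30 min at room temperature in pH 7.00 Hepes buffer with 10 mM MgCl2. Addition solutions held 25 uM ATP, 3.5 uM di-C8 PI(4,5)P2 and 0.4875 nM enzyme. The reaction was quenched with EDTA/biotin-PIP3 and detected by HTRF (GST-GRP-1 PH domain, streptavidin-XL, Eu anti-GST) after 1 h.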

[2] = target: T2, PI3Kbeta (Homo sapiens, UniProt P42338); test: Human PI3K beta enzyme assay (HTRF, as for PI3K alpha); settings: at 1.11 μM; for inhibition at 1.11 µM: read-out: PI3Kbeta % inh
T2 construct: His (N); host or cells: SF9 insect cells (baculovirus)
How it was run: (§1)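 N-His p110β/δ co-expressed with untagged p85 in Sf9, p110γ alone. Enzyme 5.25 nM (β), 0.75 nM (δ), 5 nM (γ), with ATP 25 uM and di-C8 PI(4,5)P2 3.5 uM (added-solution levels), pH 7.00, 30 min RT. HTRF read-out: biotin-PIP3, GST-GRP-1 PH domain, Eu anti-GST, streptavidin-XL.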

[3] = target: T3, PI3Kgamma (Homo sapiens, UniProt P48736); test: Human PI3K gamma enzyme assay (HTRF, as for PI3K alpha); settings: read-out: PI3Kgamma % inh
T3 construct: His (N); host or cells: SF9 insect cells (baculovirus)
How it was run: as §1

[4] = target: T4, PI3Kdelta (Homo sapiens, UniProt O00329); test: Human PI3K delta enzyme assay (HTRF, as for PI3K alpha); settings: read-out: PI3Kdelta % inh
T4 construct: His (N); host or cells: SF9 insect cells (baculovirus)
How it was run: as §1

[5] = target: T5, VPS34 (Homo sapiens, UniProt Q8NEB9); test: Human VPS34 enzyme assay (Adapta Universal Kinase Assay); settings: for inhibition at 1.11 µM: 1 h, read-out: VPS34 % ihn
T5 construct: GST (N); host or cells: SF9 insect cells (baculovirus)
How it was run: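 Human VPS34, N-terminally GST-tagged and baculovirus-expressed in Sf9 cells. Solution with 20 uM ATP and 200 uM PI-PS added, then one with 5 nM enzyme (levels in each added solution), in buffer with 2 mM DTT and 2 mM MnCl2; 1 h at room temperature. ADP read by Adapta TR-FRET (Eu anti-ADP antibody, Alexa Fluor 647 tracer).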

T5 sequence (Q8NEB9 whole entry): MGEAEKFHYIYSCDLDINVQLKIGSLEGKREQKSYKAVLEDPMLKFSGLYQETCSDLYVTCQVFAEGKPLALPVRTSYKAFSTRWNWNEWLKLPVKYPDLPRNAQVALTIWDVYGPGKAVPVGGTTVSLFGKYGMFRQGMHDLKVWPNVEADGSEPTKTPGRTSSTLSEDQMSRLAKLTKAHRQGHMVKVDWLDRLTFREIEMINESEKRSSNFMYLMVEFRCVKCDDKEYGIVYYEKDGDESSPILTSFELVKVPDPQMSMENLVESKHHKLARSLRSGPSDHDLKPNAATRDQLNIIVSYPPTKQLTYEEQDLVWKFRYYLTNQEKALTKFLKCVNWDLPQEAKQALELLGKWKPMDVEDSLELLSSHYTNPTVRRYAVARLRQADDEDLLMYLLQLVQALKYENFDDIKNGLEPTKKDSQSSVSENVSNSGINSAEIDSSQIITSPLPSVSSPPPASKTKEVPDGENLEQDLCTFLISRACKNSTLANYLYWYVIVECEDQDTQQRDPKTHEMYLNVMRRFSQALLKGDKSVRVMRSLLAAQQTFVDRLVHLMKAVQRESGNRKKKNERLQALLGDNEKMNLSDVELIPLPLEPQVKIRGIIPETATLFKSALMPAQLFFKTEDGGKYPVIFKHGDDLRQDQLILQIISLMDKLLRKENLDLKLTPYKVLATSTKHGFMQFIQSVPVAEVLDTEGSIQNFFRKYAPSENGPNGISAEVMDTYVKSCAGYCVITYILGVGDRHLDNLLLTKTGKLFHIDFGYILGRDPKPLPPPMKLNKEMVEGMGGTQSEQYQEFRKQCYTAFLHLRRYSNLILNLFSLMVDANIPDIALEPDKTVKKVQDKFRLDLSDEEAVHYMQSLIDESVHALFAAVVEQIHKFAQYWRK
T4 sequence (O00329 whole entry): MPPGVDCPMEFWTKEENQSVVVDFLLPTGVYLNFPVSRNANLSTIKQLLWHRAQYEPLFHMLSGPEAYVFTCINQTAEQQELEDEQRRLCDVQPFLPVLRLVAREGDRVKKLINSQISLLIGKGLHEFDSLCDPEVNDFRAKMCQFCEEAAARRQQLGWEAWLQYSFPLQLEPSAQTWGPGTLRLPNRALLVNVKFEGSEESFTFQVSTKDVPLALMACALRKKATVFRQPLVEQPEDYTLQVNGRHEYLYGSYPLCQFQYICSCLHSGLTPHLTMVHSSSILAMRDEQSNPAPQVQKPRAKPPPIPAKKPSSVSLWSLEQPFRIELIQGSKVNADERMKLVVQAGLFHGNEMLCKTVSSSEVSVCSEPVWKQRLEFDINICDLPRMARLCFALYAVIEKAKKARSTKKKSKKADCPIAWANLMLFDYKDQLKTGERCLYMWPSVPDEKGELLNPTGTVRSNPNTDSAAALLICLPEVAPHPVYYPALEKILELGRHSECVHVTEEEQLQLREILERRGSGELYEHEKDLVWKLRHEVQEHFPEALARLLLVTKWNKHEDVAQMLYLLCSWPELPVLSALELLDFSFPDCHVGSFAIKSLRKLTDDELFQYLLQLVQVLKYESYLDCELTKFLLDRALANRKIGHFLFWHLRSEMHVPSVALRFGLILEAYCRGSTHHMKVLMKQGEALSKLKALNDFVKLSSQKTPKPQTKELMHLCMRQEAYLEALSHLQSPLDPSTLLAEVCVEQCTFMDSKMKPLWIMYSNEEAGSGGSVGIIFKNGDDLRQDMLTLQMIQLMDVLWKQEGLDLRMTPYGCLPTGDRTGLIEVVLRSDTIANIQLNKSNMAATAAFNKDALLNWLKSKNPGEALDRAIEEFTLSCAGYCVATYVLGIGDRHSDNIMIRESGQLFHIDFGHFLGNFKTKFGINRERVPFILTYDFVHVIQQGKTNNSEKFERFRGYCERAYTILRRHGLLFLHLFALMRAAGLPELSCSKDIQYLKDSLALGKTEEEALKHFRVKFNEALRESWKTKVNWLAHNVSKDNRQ
T4 sequence (P27986 whole entry partner): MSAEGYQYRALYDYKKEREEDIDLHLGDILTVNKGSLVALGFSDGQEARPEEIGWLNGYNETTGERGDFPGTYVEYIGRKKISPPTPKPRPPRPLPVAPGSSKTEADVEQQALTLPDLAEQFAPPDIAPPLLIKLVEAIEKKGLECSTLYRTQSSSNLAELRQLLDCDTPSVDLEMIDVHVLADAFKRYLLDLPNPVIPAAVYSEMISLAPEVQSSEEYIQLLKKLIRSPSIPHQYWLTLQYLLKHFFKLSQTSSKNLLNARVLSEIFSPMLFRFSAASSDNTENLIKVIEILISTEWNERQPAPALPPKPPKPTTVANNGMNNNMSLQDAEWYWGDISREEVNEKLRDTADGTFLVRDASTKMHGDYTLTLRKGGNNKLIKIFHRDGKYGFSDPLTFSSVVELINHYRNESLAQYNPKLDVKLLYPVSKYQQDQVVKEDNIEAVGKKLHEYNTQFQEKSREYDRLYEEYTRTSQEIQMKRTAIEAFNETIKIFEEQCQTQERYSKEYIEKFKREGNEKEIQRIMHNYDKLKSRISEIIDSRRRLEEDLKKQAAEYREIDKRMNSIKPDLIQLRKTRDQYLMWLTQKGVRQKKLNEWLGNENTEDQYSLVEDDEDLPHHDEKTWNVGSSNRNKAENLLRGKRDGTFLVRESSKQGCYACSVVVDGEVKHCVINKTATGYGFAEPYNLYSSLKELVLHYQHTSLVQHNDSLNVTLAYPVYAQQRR
T2 sequence (P42338 whole entry): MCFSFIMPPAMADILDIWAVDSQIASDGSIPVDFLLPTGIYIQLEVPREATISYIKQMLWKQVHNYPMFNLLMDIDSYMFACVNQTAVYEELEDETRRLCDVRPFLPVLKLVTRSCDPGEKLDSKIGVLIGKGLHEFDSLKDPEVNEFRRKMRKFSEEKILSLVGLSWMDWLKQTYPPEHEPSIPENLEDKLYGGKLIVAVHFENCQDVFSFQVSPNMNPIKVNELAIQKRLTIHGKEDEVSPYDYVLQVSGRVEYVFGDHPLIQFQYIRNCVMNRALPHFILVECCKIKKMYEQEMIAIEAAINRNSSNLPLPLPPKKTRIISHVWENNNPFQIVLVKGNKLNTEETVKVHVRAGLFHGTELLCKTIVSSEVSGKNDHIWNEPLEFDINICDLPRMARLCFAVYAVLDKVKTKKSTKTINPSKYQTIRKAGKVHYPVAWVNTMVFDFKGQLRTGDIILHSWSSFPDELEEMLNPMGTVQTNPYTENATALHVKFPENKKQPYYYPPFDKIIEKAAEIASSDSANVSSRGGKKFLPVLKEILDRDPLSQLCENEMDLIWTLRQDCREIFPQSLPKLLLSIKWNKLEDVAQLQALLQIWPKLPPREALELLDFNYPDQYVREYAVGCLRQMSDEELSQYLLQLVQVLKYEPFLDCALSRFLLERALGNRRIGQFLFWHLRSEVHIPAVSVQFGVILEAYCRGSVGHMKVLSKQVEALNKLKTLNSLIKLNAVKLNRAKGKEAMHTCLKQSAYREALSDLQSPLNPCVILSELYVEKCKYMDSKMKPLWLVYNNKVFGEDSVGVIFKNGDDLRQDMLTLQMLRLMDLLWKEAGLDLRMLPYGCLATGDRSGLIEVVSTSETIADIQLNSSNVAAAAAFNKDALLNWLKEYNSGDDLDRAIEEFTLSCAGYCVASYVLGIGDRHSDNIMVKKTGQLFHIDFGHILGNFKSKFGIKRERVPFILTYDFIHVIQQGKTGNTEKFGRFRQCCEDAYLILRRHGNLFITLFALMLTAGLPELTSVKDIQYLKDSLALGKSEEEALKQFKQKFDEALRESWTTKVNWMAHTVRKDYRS
T2 sequence (P27986 whole entry partner): as the sequence (P27986 whole entry partner) above
T3 sequence (P48736 whole entry): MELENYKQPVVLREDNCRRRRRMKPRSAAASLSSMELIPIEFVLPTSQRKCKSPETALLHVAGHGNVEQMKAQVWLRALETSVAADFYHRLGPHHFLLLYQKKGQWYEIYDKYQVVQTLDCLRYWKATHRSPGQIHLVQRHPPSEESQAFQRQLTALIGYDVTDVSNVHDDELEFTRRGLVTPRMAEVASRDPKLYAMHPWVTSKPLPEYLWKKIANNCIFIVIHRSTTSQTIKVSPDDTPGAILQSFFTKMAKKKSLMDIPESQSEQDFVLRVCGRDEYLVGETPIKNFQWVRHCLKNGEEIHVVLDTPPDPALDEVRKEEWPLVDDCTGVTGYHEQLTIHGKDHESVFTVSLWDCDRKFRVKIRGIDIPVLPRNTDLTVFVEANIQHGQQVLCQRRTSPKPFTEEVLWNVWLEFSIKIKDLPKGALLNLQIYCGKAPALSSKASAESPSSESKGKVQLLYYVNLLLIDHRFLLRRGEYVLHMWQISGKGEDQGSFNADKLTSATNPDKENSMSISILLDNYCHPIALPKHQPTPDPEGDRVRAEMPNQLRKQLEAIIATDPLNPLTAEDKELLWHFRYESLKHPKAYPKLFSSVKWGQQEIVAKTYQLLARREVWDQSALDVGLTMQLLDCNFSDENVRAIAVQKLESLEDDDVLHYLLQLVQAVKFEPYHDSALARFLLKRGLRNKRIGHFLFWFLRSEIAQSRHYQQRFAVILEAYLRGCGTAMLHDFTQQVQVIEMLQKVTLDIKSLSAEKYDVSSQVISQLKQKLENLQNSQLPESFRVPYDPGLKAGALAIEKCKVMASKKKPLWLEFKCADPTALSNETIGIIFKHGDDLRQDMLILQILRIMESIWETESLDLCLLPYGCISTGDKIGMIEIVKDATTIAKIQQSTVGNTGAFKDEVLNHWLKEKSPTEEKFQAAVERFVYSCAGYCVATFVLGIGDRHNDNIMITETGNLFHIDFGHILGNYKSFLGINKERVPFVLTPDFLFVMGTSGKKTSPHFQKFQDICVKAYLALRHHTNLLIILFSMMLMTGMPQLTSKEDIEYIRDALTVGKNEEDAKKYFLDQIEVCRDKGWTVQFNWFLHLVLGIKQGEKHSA

Row | inhibition at 1.11 µM [1] [%] | inhibition at 1.11 µM [2] [%] | inhibition at 1.11 µM [3] [%] | inhibition at 1.11 µM [4] [%] | inhibition at 1.11 µM [5] [%] | PI3Kalpha % inh [1] [%] | PI3Kbeta % inh [2] [%] | VPS34 % ihn ([5]; at 1.11 μM) [%] | SMILES
1 | 9.58 | 79.4 | 6.39 | 30.3 | 7.04 | – | – | – | CC1(C)NC(=O)c2sc(-c3ccncc3)cc2C1c1ccc(Cl)cc1 (centres unmarked) [Compound 191, 4-(4-chlorophenyl)-5,5-dimethyl-2-(pyridin-4-yl)-5,6-dihydrothieno[2,3-c]pyridin-7(4H)-one]
2 | 8.93 | 86.6 | 14.9 | 62.9 | 8.01 | – | – | – | CN1CC(c2ccc(Cl)cc2)c2cc(N3CCOCC3)sc2C1=O (centres unmarked) [Compound 198, 4-(4-chlorophenyl)-6-methyl-2-morpholino-5,6-dihydrothieno[2,3-c]pyridin-7(4H)-one]
3 | – | – | 49.5 | 110 | 42.1 | 81.32 | 114.75 | – | O=C1NCCC(c2ccc3ccccc3c2)c2nc(N3CCOCC3)sc21 (centres unmarked) [Compound 209]
4 | – | 73 | 5.88 | 34.6 | – | 5.17 | – | −0.70 | O=C1CCC(O)C(c2ccc(Cl)cc2)c2cc(-c3ccncc3)sc21 (centres unmarked) [Compound 210, 4-(4-chlorophenyl)-5-hydroxy-2-pyridin-4-yl-4,5,6,7-tetrahydro-8H-cyclohepta[b]thiophen-8-one]

Source: patent publication US8765746B2 (Millennium Pharmaceuticals, Inc., priority 2010, dated 2014)
